For this experiment, the system named is PKC. As to the kind of experiment: PKC activity inhibition. The format is biochemical.

A word on the IC50: it is the point on the concentration scale where inhibition reaches its midpoint. A low value points to greater potency in that assay.

The structures appear in SMILES notation.

Regarding `O=S(=O)(NCCNCC=Cc1ccc(Br)cc1)c1cccc2cnccc12` [H-89, N-[2-(p-bromocinnamylamino)ethyl]-5-isoquinolinesulfonamide], the half-maximal inhibitory concentration (IC50) turned out to be 31 µM.
